Test system: pentagastrin-stimulated acid secretion of the perfused rat stomach
Conditions: perfused rat stomach in vivo, dose 1 μmol/kg i.v.
Procedure: The pH (pH meter 632, glass electrode EA 147; φ=5 mm, Metrohm) and, by titration with a freshly prepared 0.01 N NaOH solution to pH 7 (Dosimat 665 Metrohm), the secreted HCl were determined in the effluent in each case collected at an interval of 15 minutes.
The gastric secretion was stimulated by continuous infusion of 1 μg/kg (=1.65 ml/h) of i.v. pentagastrin (left femoral vein) about 30 min after the end of the operation (i.e. after determination of 2 preliminary fractions).
The body temperature of the animals was kept at a constant 37.8-38° C. by infrared irradiation and heat pads (automatic, stepless control by means of a rectal temperature sensor).

Compound | Inhibition of acid secretion [%]
COCCO[C@@H]1c2ccn3c(C)c(C)nc3c2O[C@H](c2ccccc2)[C@@H]1O [Example 1, (7R,8R,9R)-2,3-Dimethyl-8-hydroxy-7-(2-methoxyethoxy)-9-phenyl-7H-8,9-dihydro-pyrano-[2,3-c]imidazo[1,2-a]pyridine] | 100
CCO[C@@H]1c2ccn3c(C)c(C)nc3c2O[C@H](c2ccccc2)[C@@H]1O [Example 3, (7R,8R,9R)-2,3-Dimethyl-8-hydroxy-7-ethoxy-9-phenyl-7H-8,9-dihydro-pyrano[2,3-c]imidazo-[1,2-a]pyridine] | 100

Reference: US6936623B2, “Pyrano[2,3-C]imidazo[-1,2-A]pyridine derivatives for the treatment of gastrointestinal disorders” (Altana Pharma AG, priority 2000, dated 2005)
